In ChEMBL document CHEMBL3124792, “Discovery and preclinical characterization of the cyclopropylindolobenzazepine BMS-791325, a potent allosteric inhibitor of the hepatitis C virus NS5B polymerase” (J Med Chem, 2014):
≈ marks a conversion by molar mass, not a printed value.

Key:
[1] = target: T1, Cytochrome P450 1A2 (Homo sapiens, UniProt P05177); assay: Inhibition of CYP1A2 in human liver microsomes after 30 mins in presence of NADPH; format: ADME
T1 sequence (P05177 whole entry): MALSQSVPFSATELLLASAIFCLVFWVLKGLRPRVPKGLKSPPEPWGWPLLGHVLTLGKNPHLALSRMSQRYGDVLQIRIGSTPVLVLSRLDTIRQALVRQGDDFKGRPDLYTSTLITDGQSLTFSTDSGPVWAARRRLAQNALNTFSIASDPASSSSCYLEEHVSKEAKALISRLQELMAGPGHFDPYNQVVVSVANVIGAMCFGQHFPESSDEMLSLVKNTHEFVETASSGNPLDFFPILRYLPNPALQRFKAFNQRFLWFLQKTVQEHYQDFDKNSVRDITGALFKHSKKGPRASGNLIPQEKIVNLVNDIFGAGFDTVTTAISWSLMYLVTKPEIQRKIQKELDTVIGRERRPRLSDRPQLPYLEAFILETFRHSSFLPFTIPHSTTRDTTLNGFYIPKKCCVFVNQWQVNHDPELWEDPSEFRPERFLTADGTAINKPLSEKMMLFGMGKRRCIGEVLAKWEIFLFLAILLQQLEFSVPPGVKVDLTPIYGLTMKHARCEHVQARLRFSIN

[2] = target: Cytochrome P450 3A4 (Homo sapiens, UniProt P08684); assay: Inhibition of CYP3A4 in human liver microsomes using benzyloxyresorufin as substrate after 30 mins in presence of NADPH; format: ADME
[3] = target: Cytochrome P450 2C19 (Homo sapiens, UniProt P33261); assay: Inhibition of CYP2C19 in human liver microsomes after 30 mins in presence of NADPH; format: ADME
[4] = target: Cytochrome P450 2D6 (Homo sapiens, UniProt P10635); assay: Inhibition of CYP2D6 in human liver microsomes after 30 mins in presence of NADPH; format: ADME
[5] = tested on: Hepatitis C virus; assay: Antiviral activity against Hepatitis C virus Con1 genotype 1b infected in human HuH7 cells after 3 days by FRET assay; format: functional, organism-based, Hepacivirus hominis; settings: isolate Con1, Huh-7, 72 h
[6] = target: Voltage-gated inwardly rectifying potassium channel KCNH2 (Homo sapiens, UniProt Q12809); assay: Inhibition of human ERG by fluorescence-based thallium flux assay
[7] = Permeability of the compound at pH 7.4 by PAMPA; format: physicochemical; settings: read-out: permeability
[8] = target: T2, Nuclear receptor subfamily 1 group I member 2 (Homo sapiens, UniProt O75469); assay: Transactivation of human PXR expressed in human HepG2 cells by luciferase reporter gene assay; format: cell-based
T2 sequence (O75469 whole entry): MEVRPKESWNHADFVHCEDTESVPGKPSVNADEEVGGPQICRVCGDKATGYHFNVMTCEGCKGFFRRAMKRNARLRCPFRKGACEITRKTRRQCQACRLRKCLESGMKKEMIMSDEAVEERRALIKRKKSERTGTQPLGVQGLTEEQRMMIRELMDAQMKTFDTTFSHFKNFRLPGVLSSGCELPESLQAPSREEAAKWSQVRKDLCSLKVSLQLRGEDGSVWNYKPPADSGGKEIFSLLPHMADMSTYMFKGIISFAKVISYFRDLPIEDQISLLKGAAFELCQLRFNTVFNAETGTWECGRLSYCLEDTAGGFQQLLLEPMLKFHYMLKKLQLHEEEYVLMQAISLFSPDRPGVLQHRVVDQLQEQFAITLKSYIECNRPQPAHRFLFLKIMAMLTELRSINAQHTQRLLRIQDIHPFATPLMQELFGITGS

[9] = tested on: Hepatitis C virus; assay: Antiviral activity against Hepatitis C virus H77c genotype 1a infected in human HuH7 cells after 3 days by FRET assay; format: functional, organism-based, Hepacivirus hominis; settings: genotype 1a H77, Huh-7, 72 h
[10] = target: Cytochrome P450 2C9 (Homo sapiens, UniProt P11712); assay: Inhibition of CYP2C9 in human liver microsomes after 30 mins in presence of NADPH; format: ADME
[11] = target: Sodium channel protein type 5 subunit alpha (Homo sapiens, UniProt Q14524); assay: Inhibition of human NaV1.5 expressed in HEK293 cells by fluorescence-based thallium flux assay; format: cell-based
[12] = tested on: HepG2; assay: Cytotoxicity against human HepG2 cells; format: cell-based
[13] = Solubility of the compound in amorphous form in phosphate buffer at pH 6.5; format: physicochemical
[14] = tested on: Hepatitis C virus; assay: Ratio of EC50 for Hepatitis C virus Con1 genotype 1b in presence of 40% human serum to EC50 for Hepatitis C virus Con1 genotype 1b; format: functional, Hepacivirus hominis, isolate Con1
[15] = tested on: Hepatitis C virus; assay: Antiviral activity against Hepatitis C virus Con1 genotype 1b infected in human HuH7 cells after 3 days by FRET assay in presence of 40% human serum; format: functional, organism-based, Hepacivirus hominis; settings: isolate Con1, Huh-7, 72 h
[16] = target: T3, PXR (NR1I2) (Homo sapiens, UniProt O75469); assay: Transactivation of human PXR expressed in human HepG2 cells by luciferase reporter gene assay relative to control; format: cell-based; settings: HepG2 cells expressing human PXR, read-out: %max
T3 sequence (O75469 whole entry): T2 sequence (O75469 whole entry)

[17] = Cytotoxicity against human HuH7 cells by Alamar blue assay; format: cell-based; settings: Huh-7 cells
[18] = target: RNA-directed RNA polymerase (Hepacivirus hominis, UniProt O39930, P495A); assay: Inhibition of HCV Con1 genotype 1b NS5B RNA dependent RNA polymerase P495A mutant-mediated incorporation of radiolabeled nucleotides by scintillation proximity assay; set-up: species or system Hepatitis C virus (isolate Con1)
[19] = Inhibition of HCV Con1 genotype 1b recombinant wild-type NS5B polymerase-mediated incorporation of radiolabeled nucleotides by scintillation proximity assay; set-up: species or system Hepatitis C virus (isolate Con1)
[20] = tested on: Liver microsome; settings: human, microsomes
[21] = tested on: Liver microsome; settings: rat, microsomes
[22] = Drug uptake in rat liver at 10 mg/kg, po after 4 hrs; format: ADME, organism-based; set-up: dose 10 mg/kg, route oral; settings: read-out: Drug uptake
[23] = Plasma concentration in rat at 10 mg/kg, po after 4 hrs; format: ADME, organism-based; set-up: dose 10 mg/kg, route oral
[24] = Plasma concentration in rat at 5 mg/kg, iv after 4 hrs; format: ADME, organism-based; set-up: dose 5 mg/kg, route intravenous
[25] = Plasma clearance in rat at 5 mg/kg, iv; format: ADME, organism-based; set-up: dose 5 mg/kg, route intravenous
[26] = AUC (0 to 4 hrs) in rat at 10 mg/kg, po; format: ADME, organism-based; set-up: time < 4 hr, dose 10 mg/kg, route oral; settings: plasma
[27] = AUC (0 to 4 hrs) in rat at 5 mg/kg, iv; format: ADME, organism-based; set-up: time < 4 hr, dose 5 mg/kg, route intravenous; settings: plasma
[28] = Drug uptake in rat liver at 5 mg/kg, iv after 4 hrs; format: ADME, organism-based; set-up: dose 5 mg/kg, route intravenous; settings: read-out: Drug uptake

Cytochrome P450 2C9, sequence (P11712 whole entry): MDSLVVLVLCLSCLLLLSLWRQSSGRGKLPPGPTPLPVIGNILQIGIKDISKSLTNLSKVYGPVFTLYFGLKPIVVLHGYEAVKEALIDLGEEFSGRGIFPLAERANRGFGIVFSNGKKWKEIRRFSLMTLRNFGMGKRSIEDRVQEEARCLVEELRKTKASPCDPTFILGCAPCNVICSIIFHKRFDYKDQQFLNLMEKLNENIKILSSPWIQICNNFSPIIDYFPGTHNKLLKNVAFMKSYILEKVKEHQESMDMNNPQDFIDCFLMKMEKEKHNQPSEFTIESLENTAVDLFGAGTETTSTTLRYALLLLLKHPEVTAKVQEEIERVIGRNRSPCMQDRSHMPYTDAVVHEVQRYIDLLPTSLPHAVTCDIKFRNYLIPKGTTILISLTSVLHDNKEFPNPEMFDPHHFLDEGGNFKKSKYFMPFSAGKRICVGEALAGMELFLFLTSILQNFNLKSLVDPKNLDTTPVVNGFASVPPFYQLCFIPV
Voltage-gated inwardly rectifying potassium channel KCNH2, sequence (Q12809 whole entry): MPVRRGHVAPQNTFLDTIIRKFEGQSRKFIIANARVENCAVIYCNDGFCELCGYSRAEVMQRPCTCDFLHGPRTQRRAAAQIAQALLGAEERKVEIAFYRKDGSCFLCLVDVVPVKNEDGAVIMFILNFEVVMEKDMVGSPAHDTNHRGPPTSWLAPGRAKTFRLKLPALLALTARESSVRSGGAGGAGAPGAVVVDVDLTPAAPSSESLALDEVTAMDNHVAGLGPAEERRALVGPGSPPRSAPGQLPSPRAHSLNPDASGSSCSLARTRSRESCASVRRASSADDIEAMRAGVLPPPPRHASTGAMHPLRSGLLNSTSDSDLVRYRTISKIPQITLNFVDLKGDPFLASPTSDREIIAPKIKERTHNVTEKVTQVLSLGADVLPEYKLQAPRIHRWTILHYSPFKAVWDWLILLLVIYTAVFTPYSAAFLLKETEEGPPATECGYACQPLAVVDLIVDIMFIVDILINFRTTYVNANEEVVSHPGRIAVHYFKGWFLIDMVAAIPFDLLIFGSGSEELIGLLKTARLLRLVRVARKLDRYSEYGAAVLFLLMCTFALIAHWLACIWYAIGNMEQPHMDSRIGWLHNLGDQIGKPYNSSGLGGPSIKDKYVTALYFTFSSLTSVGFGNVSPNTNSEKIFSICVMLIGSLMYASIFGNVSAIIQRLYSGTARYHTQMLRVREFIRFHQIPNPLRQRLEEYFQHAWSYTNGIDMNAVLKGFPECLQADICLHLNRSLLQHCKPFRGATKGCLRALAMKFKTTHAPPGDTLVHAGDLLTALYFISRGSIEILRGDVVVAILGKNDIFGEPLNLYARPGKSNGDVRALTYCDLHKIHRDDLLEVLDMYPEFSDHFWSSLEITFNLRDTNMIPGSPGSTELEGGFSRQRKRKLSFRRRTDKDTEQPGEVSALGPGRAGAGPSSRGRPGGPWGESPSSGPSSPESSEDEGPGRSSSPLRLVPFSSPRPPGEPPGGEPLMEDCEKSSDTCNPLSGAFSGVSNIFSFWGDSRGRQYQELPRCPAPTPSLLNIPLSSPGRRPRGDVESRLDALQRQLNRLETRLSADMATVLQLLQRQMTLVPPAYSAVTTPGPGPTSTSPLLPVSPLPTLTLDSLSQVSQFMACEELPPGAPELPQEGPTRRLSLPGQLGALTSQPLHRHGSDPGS
Cytochrome P450 2C19, sequence (P33261 whole entry): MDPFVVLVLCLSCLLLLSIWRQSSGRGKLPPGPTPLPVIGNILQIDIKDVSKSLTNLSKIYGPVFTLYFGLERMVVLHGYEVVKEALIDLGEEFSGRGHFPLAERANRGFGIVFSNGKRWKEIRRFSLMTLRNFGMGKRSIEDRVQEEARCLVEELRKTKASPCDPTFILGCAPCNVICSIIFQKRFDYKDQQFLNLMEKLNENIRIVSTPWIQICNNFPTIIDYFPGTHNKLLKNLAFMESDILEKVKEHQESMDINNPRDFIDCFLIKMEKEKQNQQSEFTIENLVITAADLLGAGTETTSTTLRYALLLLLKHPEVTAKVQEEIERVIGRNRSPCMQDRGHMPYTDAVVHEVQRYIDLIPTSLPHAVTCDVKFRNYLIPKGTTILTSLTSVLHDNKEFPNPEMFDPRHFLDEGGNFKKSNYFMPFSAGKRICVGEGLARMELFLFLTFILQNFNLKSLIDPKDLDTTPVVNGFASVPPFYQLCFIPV
Cytochrome P450 2D6, sequence (P10635 whole entry): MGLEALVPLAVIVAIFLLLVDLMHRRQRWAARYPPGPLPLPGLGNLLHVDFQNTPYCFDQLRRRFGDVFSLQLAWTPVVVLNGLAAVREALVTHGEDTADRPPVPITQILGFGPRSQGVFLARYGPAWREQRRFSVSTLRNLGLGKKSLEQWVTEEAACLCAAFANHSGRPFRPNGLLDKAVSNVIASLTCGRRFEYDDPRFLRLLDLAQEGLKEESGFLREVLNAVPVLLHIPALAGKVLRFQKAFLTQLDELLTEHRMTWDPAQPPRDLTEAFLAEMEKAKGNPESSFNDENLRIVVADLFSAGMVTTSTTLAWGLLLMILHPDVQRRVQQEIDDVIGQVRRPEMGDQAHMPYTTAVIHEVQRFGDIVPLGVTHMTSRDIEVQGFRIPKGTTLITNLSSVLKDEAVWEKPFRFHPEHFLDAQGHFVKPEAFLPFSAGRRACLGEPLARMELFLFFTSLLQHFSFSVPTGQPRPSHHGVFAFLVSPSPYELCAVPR
RNA-directed RNA polymerase, sequence (O39930 entry or part of it P495A): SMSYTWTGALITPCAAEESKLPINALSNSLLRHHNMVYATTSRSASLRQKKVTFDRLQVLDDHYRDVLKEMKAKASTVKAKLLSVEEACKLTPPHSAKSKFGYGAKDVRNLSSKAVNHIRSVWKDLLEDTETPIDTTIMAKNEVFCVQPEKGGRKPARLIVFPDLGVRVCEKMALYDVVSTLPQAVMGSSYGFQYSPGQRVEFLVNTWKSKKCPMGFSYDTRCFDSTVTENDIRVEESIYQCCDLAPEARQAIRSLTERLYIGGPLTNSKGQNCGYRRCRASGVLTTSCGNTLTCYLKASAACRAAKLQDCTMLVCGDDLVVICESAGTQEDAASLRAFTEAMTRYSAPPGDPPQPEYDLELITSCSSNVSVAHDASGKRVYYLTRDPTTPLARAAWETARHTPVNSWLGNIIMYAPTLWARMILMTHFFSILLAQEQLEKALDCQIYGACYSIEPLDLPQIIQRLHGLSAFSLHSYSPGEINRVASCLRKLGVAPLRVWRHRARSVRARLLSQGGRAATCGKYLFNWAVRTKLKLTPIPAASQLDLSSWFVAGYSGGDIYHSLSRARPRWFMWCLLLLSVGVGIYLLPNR
Cytochrome P450 3A4, sequence (P08684 whole entry): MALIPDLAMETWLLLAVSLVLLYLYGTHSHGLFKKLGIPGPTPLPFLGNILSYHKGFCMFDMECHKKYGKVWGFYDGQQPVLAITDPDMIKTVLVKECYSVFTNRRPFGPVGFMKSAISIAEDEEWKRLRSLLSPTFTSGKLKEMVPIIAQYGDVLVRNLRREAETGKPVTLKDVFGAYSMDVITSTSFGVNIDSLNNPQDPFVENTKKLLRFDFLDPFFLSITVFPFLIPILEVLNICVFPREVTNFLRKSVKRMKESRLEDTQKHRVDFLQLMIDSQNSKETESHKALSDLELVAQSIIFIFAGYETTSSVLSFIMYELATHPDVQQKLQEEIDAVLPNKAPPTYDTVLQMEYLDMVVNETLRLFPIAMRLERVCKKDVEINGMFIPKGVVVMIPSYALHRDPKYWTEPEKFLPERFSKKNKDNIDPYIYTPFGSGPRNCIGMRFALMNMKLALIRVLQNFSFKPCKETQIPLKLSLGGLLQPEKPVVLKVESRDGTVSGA

| SMILES | Papp [7] [×10⁻⁶ cm/s] | EC50 [8] [nM] | solubility [13] [µg/mL] | Stability [20] [%] | Stability [21] [%] | concentration at 4 h [22] [nM] | concentration at 4 h [23] [nM] | EC50 [1] [nM] | EC50 [2] [nM] | EC50 [3] [nM] | EC50 [4] [nM] | EC50 [5] [nM] | EC50 [6] [nM] | EC50 [9] [nM] | EC50 [10] [nM] | EC50 [12] [nM] | EC50 [15] [nM] | CC50 [17] [nM] | EC50 [18] [nM] | IC50 [19] [nM] | also measured |
| --- | --- | --- | --- | --- | --- | --- | --- | --- | --- | --- | --- | --- | --- | --- | --- | --- | --- | --- | --- | --- | --- |
| O=C(O)c1ccc2c(C3CCCCC3)c3n(c2c1)C[C@@]1(C(=O)N2CCOCC2)C[C@H]1c1ccccc1-3 |  |  |  |  |  |  |  |  |  |  |  | 51 |  | 41 |  |  | 484 | > 10000 | 380 | 22 |  |
| COc1ccc2c(c1)C1CC1(C(=O)N1C3CNCC1C3)Cn1c-2c(C2CCCCC2)c2ccc(C(=O)NS(=O)(=O)N(C)C)cc21 (racemic) | 6 | > 50000 |  | 97 | 100 |  |  | > 40000 | > 40000 | > 40000 | > 40000 | 80 | 32000 | 23 | > 40000 | > 50000 | 94 | > 10000 |  |  |  |
| COc1ccc2c(c1)C1CC1(C(=O)N1C3CC1CN(Cc1ccccc1)C3)Cn1c-2c(C2CCCCC2)c2ccc(C(=O)NS(=O)(=O)N(C)C)cc21 (racemic) | 56 | 2000 |  | 80 | 100 |  |  | > 13000 | 13000 | 31000 | > 40000 | 162 | > 80000 | 35 | 7000 | 22000 |  | > 10000 |  |  | Emax [16]: 22% |
| CN(C)S(=O)(=O)NC(=O)c1ccc2c(C3CCCCC3)c3n(c2c1)CC1(C(=O)N2CCOCC2)CC1c1ccccc1-3 (racemic) |  |  |  |  |  |  |  |  |  |  |  | 82 |  | 44 |  |  | 821 | > 10000 | 165 | 94 |  |
| COc1ccc2c(c1)C1CC1(C(=O)N1CCOCC1)Cn1c-2c(C2CCCCC2)c2ccc(C(=O)NS(=O)(=O)N(C)C)cc21 (racemic) |  |  |  |  |  |  |  |  |  |  |  | 61 |  | 54 |  |  | 300 | > 10000 | 385 | 22 |  |

Continued, in another order:

| Papp [7] [×10⁻⁶ cm/s] | EC50 [8] [nM] | solubility [13] [µg/mL] | Stability [20] [%] | Stability [21] [%] | concentration at 4 h [22] [nM] | concentration at 4 h [23] [nM] | SMILES | EC50 [1] [nM] | EC50 [2] [nM] | EC50 [3] [nM] | EC50 [4] [nM] | EC50 [5] [nM] | EC50 [6] [nM] | EC50 [9] [nM] | EC50 [10] [nM] | EC50 [12] [nM] | EC50 [15] [nM] | CC50 [17] [nM] | EC50 [18] [nM] | IC50 [19] [nM] | also measured |
| --- | --- | --- | --- | --- | --- | --- | --- | --- | --- | --- | --- | --- | --- | --- | --- | --- | --- | --- | --- | --- | --- |
| 27 | > 50000 | 450 (≈ 682 µM) |  |  |  |  | CCN1CC2CC(C1)N2C(=O)[C@]12C[C@H]1c1cc(OC)ccc1-c1c(C3CCCCC3)c3ccc(C(=O)NS(=O)(=O)N(C)C)cc3n1C2 | > 40000 | 9000 | > 40000 | > 40000 | 4 | 6000 | 4 | > 40000 | 19000 |  |  |  |  | EC50 [11]: 29000 nM |
|  | > 50000 |  |  |  |  |  | COC[C@H]1CN(C(=O)[C@]23C[C@H]2c2cc(OC)ccc2-c2c(C4CCCCC4)c4ccc(C(=O)NS(=O)(=O)N(C)C)cc4n2C3)CCO1 |  |  |  |  | 12 |  | 6 |  |  | 36 | > 10000 |  |  | Ratio EC50 [14]: 3; Emax [16]: 12% |
| 30 | > 50000 | 93 (≈ 150 µM) | 81 | 85 | 3700 | 25 | COc1ccc2c(c1)C1CC1(C(=O)N1CC(C)(O)C1)Cn1c-2c(C2CCCCC2)c2ccc(C(=O)NS(=O)(=O)N(C)C)cc21 (racemic) |  |  |  |  | 20 |  | 14 |  |  | 56 | > 10000 |  |  | concentration at 4 h [24]: 29 nM; clearance [25]: 14 mL/min/kg; AUC(0-t) at 4 h [26]: 0.139 µM·h; AUC(0-t) at 4 h [27]: 9.8 µM·h; concentration at 4 h [28]: 9600 nM |
| 48 | > 50000 | 34 (≈ 51.4 µM) | 88 | 99 | 9700 | 158 | COc1ccc2c(c1)C1CC1(C(=O)N1C[C@@H](C)N(C)[C@@H](C)C1)Cn1c-2c(C2CCCCC2)c2ccc(C(=O)NS(=O)(=O)N(C)C)cc21 (mixture of isomers) |  |  |  |  | 17 |  | 14 |  |  | 46 | 8000 |  |  | concentration at 4 h [24]: 67 nM; clearance [25]: 29 mL/min/kg; AUC(0-t) at 4 h [26]: 0.516 µM·h; AUC(0-t) at 4 h [27]: 4.29 µM·h; concentration at 4 h [28]: 1860 nM |
| 48 | > 50000 | 17 (≈ 24.6 µM) | 100 | 93 | 345 | 14 | COc1ccc2c(c1)C1CC1(C(=O)N1C[C@@H](C)N(C(C)=O)[C@@H](C)C1)Cn1c-2c(C2CCCCC2)c2ccc(C(=O)NS(=O)(=O)N(C)C)cc21 (mixture of isomers) |  |  |  |  | 38 |  | 24 |  |  | 35 | > 10000 |  |  | concentration at 4 h [24]: 9 nM; clearance [25]: 37 mL/min/kg; AUC(0-t) at 4 h [26]: 0.277 µM·h; AUC(0-t) at 4 h [27]: 3.84 µM·h; concentration at 4 h [28]: 126 nM |
